Test results as given in patent publication US9139532B2, “Pyrazolyl guanidine F1F0-atpase inhibitors and therapeutic uses thereof” (Lycera Corporation, priority 2010, dated 2015).
Like-named read-outs stand apart in the source and are kept apart here.

Legend:
F1F0-ATPase = biological target: T1, F1F0-ATPase (Bos taurus, UniProt P13621); test: Inhibition of F1F0-ATPase activity in synthesizing ATP; type: biochemical; details: inhibition of ATP synthesis by F1F0-ATPase; read-out: ATP Syn IC50
T1 construct: from tissue

Ramos cells = test: Cytotoxicity in Ramos cells; type: cell-based; details: cytotoxicity in Ramos cells, read-out: Ramos Cell EC50

IC50 (F1F0-ATPase) | SMILES | EC50 (Ramos cells) | EC50 (Ramos cells; Homo sapiens)
< 10 µM | Cc1cc(N/C(=N\C(=O)c2ccc(F)c(F)c2)NC2CCCC2)n[nH]1 [Compound A-188] | > 10 µM | –
< 10 µM | Cc1cc(N/C(=N\C(=O)c2ccc(C(F)(F)F)cc2)NCC(C)C)n[nH]1 [Compound A-189] | < 10 µM | –
> 10 µM | Cc1cc(N/C(=N\C(=O)c2ccc(C(F)(F)F)cc2)NC(C)C)n[nH]1 [Compound A-190] | > 10 µM | –
> 10 µM | Cc1cc(N/C(=N\C(=O)c2ccc(F)c(F)c2)NCC(C)C)n[nH]1 [Compound A-191] | > 10 µM | –
< 10 µM | Cc1cc(N/C(=N\C(=O)c2ccc(F)c(F)c2)NC(C)(C)C)n[nH]1 [Compound A-192] | < 10 µM | –
< 10 µM | O=C(/N=C(\Nc1cc(-c2ccc(F)cc2)[nH]n1)NC1CC1)c1ccc(F)cc1 [Compound A-193] | > 10 µM | –
< 10 µM | Cc1ccc(-c2cc(N/C(=N\C(=O)c3ccc(C(F)(F)F)cc3)NC3CC3)[nH]n2)cc1F [Compound A-195] | < 10 µM | –
< 10 µM | CC1(CN/C(=N/C(=O)c2ccc(F)cc2)Nc2cc(-c3ccc(F)cc3)n[nH]2)COC1 [Compound A-196] | < 10 µM | –
< 10 µM | O=C(/N=C(\Nc1cc(-c2cc(F)cc(F)c2)n[nH]1)NC1COC1)c1ccc(F)c(F)c1 [Compound A-197] | < 10 µM | –
< 10 µM | O=C(/N=C(\Nc1cc(-c2cc(F)cc(F)c2)n[nH]1)NC1CC1)c1ccc(F)c(F)c1 [Compound A-198] | < 10 µM | –
< 10 µM | O=C(/N=C(\Nc1cc(-c2ccc(F)cc2)n[nH]1)NC1COC1)c1ccc(F)c(F)c1 [Compound A-199] | > 10 µM | –
< 10 µM | CC1(CN/C(=N/C(=O)c2ccc(F)c(F)c2)Nc2cc(-c3ccc(F)cc3)n[nH]2)COC1 [Compound A-200] | > 10 µM | –
< 10 µM | CC1(CN/C(=N/C(=O)c2cccc(F)c2)Nc2cc(-c3ccc(F)cc3)n[nH]2)CCCO1 (stereo not shown) [Compound A-201] | > 10 µM | –
< 10 µM | O=C(/N=C(\Nc1cc(-c2ccc(F)cc2)n[nH]1)NC1CC1)c1cccc(F)c1 [Compound A-202] | > 10 µM | –
< 10 µM | CCC(C)N/C(=N/C(=O)c1ccc(F)cc1)Nc1cc(-c2ccc(C)c(F)c2)n[nH]1 (stereo not shown) [Compound A-203] | – | < 10 µM
< 10 µM | COC[C@H](C)N/C(=N/C(=O)c1ccc(F)cc1)Nc1cc(-c2ccc(C)c(F)c2)n[nH]1 [Compound A-205] | – | < 10 µM
< 10 µM | CCC(C)N/C(=N/C(=O)c1ccc(F)cc1)Nc1cc(-c2ccc(F)cc2)n[nH]1 (stereo not shown) [Compound A-206] | – | < 10 µM
> 10 µM | CC(N/C(=N/C(=O)c1ccc(F)cc1)Nc1cc(-c2ccc(F)cc2)n[nH]1)C1CCCO1 (stereo not shown) [Compound A-207] | > 10 µM | –
> 10 µM | O=C(/N=C(/NCC1CCCCO1)Nc1cc(-c2ccc(F)cc2)n[nH]1)c1ccc(F)cc1 (stereo not shown) [Compound A-208] | > 10 µM | –
< 10 µM | CCC(C)N/C(=N/C(=O)c1ccc(F)cc1)Nc1cc(-c2ccc(Cl)cc2)n[nH]1 (stereo not shown) [Compound A-209] | – | < 10 µM

IC50 (F1F0-ATPase) | SMILES | EC50 (Ramos cells) | EC50 (Ramos cells; Homo sapiens)
< 10 µM | CC1(CNC(=NC(=O)c2ccc(Cl)c(F)c2)Nc2cc(-c3ccc(F)cc3)n[nH]2)CCCO1 (stereo not shown) [Compound A-210] | – | < 10 µM
< 10 µM | CC1(CNC(=NC(=O)c2ccc(F)c(F)c2)Nc2cc(-c3ccc(Cl)cc3)n[nH]2)CCCO1 (stereo not shown) [Compound A-211] | – | > 10 µM
< 10 µM | CC1(CNC(=NC(=O)c2ccc(Cl)cc2)Nc2cc(-c3cc(F)cc(F)c3)n[nH]2)CCCO1 (stereo not shown) [Compound A-212] | – | < 10 µM
< 10 µM | CCOC(C)CN/C(=N/C(=O)c1ccc(Cl)c(F)c1)Nc1cc(-c2ccc(F)cc2)n[nH]1 (stereo not shown) [Compound A-213] | < 10 µM | –
< 10 µM | CCOC(C)CN/C(=N/C(=O)c1ccc(F)c(F)c1)Nc1cc(-c2ccc(Cl)cc2)n[nH]1 (stereo not shown) [Compound A-214] | < 10 µM | –
> 10 µM | O=C(N=C(NCC1CCO1)Nc1cc(-c2ccc(F)cc2)n[nH]1)c1ccc(Cl)c(F)c1 (stereo not shown) [Compound A-215] | – | > 10 µM
< 10 µM | CC(C)N/C(=N/C(=O)c1ccc(Cl)c(F)c1)Nc1cc(-c2ccc(F)cc2)n[nH]1 [Compound A-216] | < 10 µM | –
< 10 µM | CCOCC(C)NC(=NC(=O)c1ccc(Cl)c(F)c1)Nc1cc(-c2ccc(F)cc2)n[nH]1 (stereo not shown) [Compound A-217] | – | < 10 µM
< 10 µM | COCC(C)NC(=NC(=O)c1ccc(Cl)c(F)c1)Nc1cc(-c2ccc(F)cc2)n[nH]1 (stereo not shown) [Compound A-218] | < 10 µM | –
< 10 µM | CCC(C)N/C(=N/C(=O)c1ccc(Cl)c(F)c1)Nc1cc(-c2ccc(F)cc2)n[nH]1 (stereo not shown) [Compound A-219] | < 10 µM | –
< 10 µM | CC(C)CN/C(=N/C(=O)c1ccc(Cl)c(F)c1)Nc1cc(-c2ccc(F)cc2)n[nH]1 [Compound A-220] | < 10 µM | –
< 10 µM | O=C(N=C(Nc1cc(-c2ccc(F)cc2)n[nH]1)NC1CCCC1)c1ccc(Cl)c(F)c1 [Compound A-221] | – | < 10 µM
< 10 µM | O=C(/N=C(\Nc1cc(-c2ccc(F)cc2)n[nH]1)NC1CCC1)c1ccc(Cl)c(F)c1 [Compound A-222] | < 10 µM | –
< 10 µM | O=C(N=C(NCC1CCO1)Nc1cc(-c2ccc(Cl)cc2)n[nH]1)c1ccc(F)c(F)c1 (stereo not shown) [Compound A-223] | – | < 10 µM
< 10 µM | O=C(N=C(Nc1cc(-c2ccc(Cl)cc2)n[nH]1)NC1CCC1)c1ccc(F)c(F)c1 [Compound A-224] | – | > 10 µM
< 10 µM | CCC(C)N/C(=N/C(=O)c1ccc(F)c(F)c1)Nc1cc(-c2ccc(Cl)cc2)n[nH]1 (stereo not shown) [Compound A-225] | < 10 µM | –
< 10 µM | O=C(N=C(Nc1cc(-c2ccc(Cl)cc2)n[nH]1)NC1CCC1)c1ccc(Cl)c(F)c1 [Compound A-226] | – | < 10 µM
< 10 µM | COCC(C)NC(=NC(=O)c1ccc(Cl)cc1)Nc1cc(-c2cc(F)cc(F)c2)n[nH]1 (stereo not shown) [Compound A-228] | > 10 µM | –
< 10 µM | O=C(/N=C(\Nc1cc(-c2cc(F)cc(F)c2)n[nH]1)NC1CCCC1)c1ccc(Cl)cc1 [Compound A-229] | < 10 µM | –
< 10 µM | O=C(N=C(Nc1cc(-c2cc(F)cc(F)c2)n[nH]1)NC1CCC1)c1ccc(Cl)cc1 [Compound A-231] | – | < 10 µM

IC50 (F1F0-ATPase) | SMILES | EC50 (Ramos cells) | EC50 (Ramos cells; Homo sapiens)
< 10 µM | CC(C)(C)NC(=NC(=O)c1ccc(Cl)cc1)Nc1cc(-c2cc(F)cc(F)c2)n[nH]1 [Compound A-232] | – | < 10 µM
< 10 µM | CC(C)CNC(=NC(=O)c1ccc(Cl)cc1)Nc1cc(-c2cc(F)cc(F)c2)n[nH]1 [Compound A-233] | – | < 10 µM
< 10 µM | CCOCCN/C(=N/C(=O)c1ccc(F)c(F)c1)Nc1cc(-c2ccc(F)cc2)n[nH]1 [Compound A-235] | < 10 µM | –
< 10 µM | O=C(/N=C(\Nc1cc(-c2ccc(Cl)cc2)n[nH]1)NC1CCC1)c1ccc(C(F)(F)F)cc1 [Compound A-236] | < 10 µM | –
< 10 µM | CCOCC(C)NC(=NC(=O)c1ccc(C(F)(F)F)cc1)Nc1cc(-c2ccc(Cl)cc2)n[nH]1 (stereo not shown) [Compound A-237] | < 10 µM | –
< 10 µM | COCC(C)NC(=NC(=O)c1ccc(C(F)(F)F)cc1)Nc1cc(-c2ccc(Cl)cc2)n[nH]1 (stereo not shown) [Compound A-238] | – | < 10 µM
< 10 µM | O=C(N=C(Nc1cc(-c2ccc(Cl)cc2)n[nH]1)NC1CCCC1)c1ccc(C(F)(F)F)cc1 [Compound A-239] | – | > 10 µM
< 10 µM | CC(C)CN/C(=N/C(=O)c1ccc(C(F)(F)F)cc1)Nc1cc(-c2ccc(Cl)cc2)n[nH]1 [Compound A-240] | < 10 µM | –
< 10 µM | CC(C)N/C(=N/C(=O)c1ccc(C(F)(F)F)cc1)Nc1cc(-c2ccc(Cl)cc2)n[nH]1 [Compound A-241] | < 10 µM | –
< 10 µM | CCOC[C@H](C)NC(=NC(=O)c1ccc(F)cc1)Nc1cc(-c2cc(F)cc(F)c2)n[nH]1 [Compound A-242] | – | < 10 µM
< 10 µM | O=C(/N=C(\Nc1cc(-c2cc(F)cc(F)c2)n[nH]1)NC1CCCC1)c1ccc(F)cc1 [Compound A-243] | < 10 µM | –
< 10 µM | CC(C)CN/C(=N/C(=O)c1ccc(F)cc1)Nc1cc(-c2cc(F)cc(F)c2)n[nH]1 [Compound A-244] | < 10 µM | –
< 10 µM | CC(C)N/C(=N/C(=O)c1ccc(F)cc1)Nc1cc(-c2cc(F)cc(F)c2)n[nH]1 [Compound A-245] | < 10 µM | –
< 10 µM | COCC(C)NC(=NC(=O)c1ccc(F)c(F)c1)Nc1cc(-c2cc(F)cc(Cl)c2)n[nH]1 (stereo not shown) [Compound A-246] | – | < 10 µM
< 10 µM | CCOC[C@H](C)N/C(=N/C(=O)c1ccc(F)c(F)c1)Nc1cc(-c2cc(F)cc(Cl)c2)n[nH]1 [Compound A-247] | – | < 10 µM
< 10 µM | O=C(N=C(Nc1cc(-c2ccc(F)cc2)n[nH]1)NC1CCCC1)c1ccc(Cl)cc1 [Compound A-248] | – | < 10 µM
< 10 µM | CC(C)CNC(=NC(=O)c1ccc(Cl)cc1)Nc1cc(-c2ccc(F)cc2)n[nH]1 [Compound A-249] | – | < 10 µM
< 10 µM | CC(C)N/C(=N/C(=O)c1ccc(Cl)cc1)Nc1cc(-c2ccc(F)cc2)n[nH]1 [Compound A-250] | < 10 µM | –
< 10 µM | O=C(/N=C(\Nc1cc(-c2ccc(Cl)cc2)n[nH]1)NC1CCC1)c1ccc(F)cc1 [Compound A-251] | < 10 µM | –
< 10 µM | CCOCC(C)NC(=NC(=O)c1ccc(F)cc1)Nc1cc(-c2ccc(Cl)cc2)n[nH]1 (stereo not shown) [Compound A-252] | – | < 10 µM

SMILES | IC50 (F1F0-ATPase) | EC50 (Ramos cells) | EC50 (Ramos cells; Homo sapiens)
CC(C)N/C(=N/C(=O)c1ccc(Cl)cc1)Nc1cc(-c2cc(F)cc(F)c2)n[nH]1 [Compound A-230] | < 10 µM | < 10 µM | –
CCC(C)N/C(=N/C(=O)c1ccc(Cl)cc1)Nc1cc(-c2cc(F)cc(F)c2)n[nH]1 (stereo not shown) [Compound A-234] | < 10 µM | < 10 µM | –
